# Measured values: patent US20170360947A1, “POLYMER PARTICLES AND BIOMATERIALS COMPRISING THE SAME” (UNIVERSITE DE BORDEAUX, priority 2014, published 2017)
# Columns and labels:
# MRSA BCB8 = test: MIC determination in Mueller-Hinton broth (absorbance at 600 nm); type: cell-based, S. aureus
# Method: From a 24 h bacterial culture, MRSA BCB8 were suspended in Mueller-Hinton broth to obtain a 0.5 McF suspension, which was diluted to a final concentration of 1.10^6 CFU·ml^−1.
# Then twofold serial dilutions of chemicals were prepared (from 256 μg·ml^−1 to 0.06 μg·ml^−1) and 100 μl of MRSA BCB8 suspension were incubated with 200 μl of chemical containing solutions for 24 h at 37° C.
# After this time, suspension absorbances were measured at 600 nm. MICs were determined as the minimal concentration for which the lowest absorbance is observed.
# [1] = test system: MRSA strain obtained from blood cultures; test: Gentamicin susceptibility of the MRSA strain studied in vivo; type: cell-based, S. aureus
# Method: Strain studied: an MRSA strain obtained from blood cultures (gentamicin MIC<0.5 μg/mL). Assessment of the animal model was realized with 10^3 CFU/mL inoculum.
molecule,measurement,setting,value
CN[C@H](CC(C)C)C(=O)N[C@H]1C(=O)N[C@@H](CC(N)=O)C(=O)N[C@H]2C(=O)N[C@H]3C(=O)N[C@H](C(=O)N[C@H](C(=O)O)c4cc(O)cc(O)c4-c4cc3ccc4O)[C@H](O)c3ccc(c(Cl)c3)Oc3cc2cc(c3O[C@@H]2O[C@H](CO)[C@@H](O)[C@H](O)[C@H]2O[C@H]2C[C@](C)(N)[C@H](O)[C@H](C)O2)Oc2ccc(cc2Cl)[C@H]1O [Vancomycin],MIC,"MRSA BCB8; Staphylococcus aureus, MRSA, 24 h",0.6 µg/mL
gentamicin,gentamicin MIC,[1],< 0.5 µg/mL
α-Norbornenyl-ω-Vancomycin Poly(Ethylene Oxide) [macro Vanco],MIC,"MRSA BCB8; MRSA BCB8, 24 h at 37° C., lowest absorbance at 600 nm",1.3 µg/mL
